Blank lines part the entries; values can stand above or below the compound they belong to. Calls of active or inactive are those of the source. The rule behind the calls is not given here.
How the values were obtained:
Hepatitis C virus [1] = test: Antiviral activity against HCV in Huh7-Rep cells by luciferase assay; assay type: functional, organism-based, Hepacivirus hominis
[2] = Cytotoxicity against MT4 cells by luciferase assay; assay type: cell-based; settings: human
[3] = Cytotoxicity against Huh7 cells by luciferase assay; assay type: cell-based, Huh-7; settings: human
Hepatitis C virus [4] = test: Antiviral activity against HCV ET replicon with NS3 E1202G, T1280I mutation and NS4B K1846 mutation; assay type: functional, organism-based; settings: Hepacivirus hominis
[5] = tested on: Bovine viral diarrhea virus 1; test: Antiviral activity against BVDV upto 100 uM; assay type: functional, organism-based
[6] = target: Mitogen-activated protein kinase 9 (Homo sapiens, UniProt P45984); test: Inhibition of human JNK2
[7] = target: Mitogen-activated protein kinase 10 (Homo sapiens, UniProt P53779); test: Inhibition of human JNK3
Mitogen-activated protein kinase 10, sequence (P53779 whole entry): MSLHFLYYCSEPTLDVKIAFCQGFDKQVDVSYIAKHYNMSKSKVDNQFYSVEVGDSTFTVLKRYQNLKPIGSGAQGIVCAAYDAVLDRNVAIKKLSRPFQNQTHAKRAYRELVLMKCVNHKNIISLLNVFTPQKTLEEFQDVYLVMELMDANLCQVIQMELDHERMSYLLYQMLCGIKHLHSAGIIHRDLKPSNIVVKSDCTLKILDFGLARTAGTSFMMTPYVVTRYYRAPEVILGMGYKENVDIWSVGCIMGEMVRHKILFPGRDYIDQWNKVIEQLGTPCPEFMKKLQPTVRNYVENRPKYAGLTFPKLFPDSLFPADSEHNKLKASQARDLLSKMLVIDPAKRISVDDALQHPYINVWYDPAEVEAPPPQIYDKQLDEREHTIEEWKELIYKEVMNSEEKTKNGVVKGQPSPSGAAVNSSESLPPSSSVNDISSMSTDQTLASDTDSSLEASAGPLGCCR

[8] = target: Vascular endothelial growth factor receptor 1 (Homo sapiens, UniProt P17948); test: Inhibition of human VEGFR1
Vascular endothelial growth factor receptor 1, sequence (P17948 whole entry): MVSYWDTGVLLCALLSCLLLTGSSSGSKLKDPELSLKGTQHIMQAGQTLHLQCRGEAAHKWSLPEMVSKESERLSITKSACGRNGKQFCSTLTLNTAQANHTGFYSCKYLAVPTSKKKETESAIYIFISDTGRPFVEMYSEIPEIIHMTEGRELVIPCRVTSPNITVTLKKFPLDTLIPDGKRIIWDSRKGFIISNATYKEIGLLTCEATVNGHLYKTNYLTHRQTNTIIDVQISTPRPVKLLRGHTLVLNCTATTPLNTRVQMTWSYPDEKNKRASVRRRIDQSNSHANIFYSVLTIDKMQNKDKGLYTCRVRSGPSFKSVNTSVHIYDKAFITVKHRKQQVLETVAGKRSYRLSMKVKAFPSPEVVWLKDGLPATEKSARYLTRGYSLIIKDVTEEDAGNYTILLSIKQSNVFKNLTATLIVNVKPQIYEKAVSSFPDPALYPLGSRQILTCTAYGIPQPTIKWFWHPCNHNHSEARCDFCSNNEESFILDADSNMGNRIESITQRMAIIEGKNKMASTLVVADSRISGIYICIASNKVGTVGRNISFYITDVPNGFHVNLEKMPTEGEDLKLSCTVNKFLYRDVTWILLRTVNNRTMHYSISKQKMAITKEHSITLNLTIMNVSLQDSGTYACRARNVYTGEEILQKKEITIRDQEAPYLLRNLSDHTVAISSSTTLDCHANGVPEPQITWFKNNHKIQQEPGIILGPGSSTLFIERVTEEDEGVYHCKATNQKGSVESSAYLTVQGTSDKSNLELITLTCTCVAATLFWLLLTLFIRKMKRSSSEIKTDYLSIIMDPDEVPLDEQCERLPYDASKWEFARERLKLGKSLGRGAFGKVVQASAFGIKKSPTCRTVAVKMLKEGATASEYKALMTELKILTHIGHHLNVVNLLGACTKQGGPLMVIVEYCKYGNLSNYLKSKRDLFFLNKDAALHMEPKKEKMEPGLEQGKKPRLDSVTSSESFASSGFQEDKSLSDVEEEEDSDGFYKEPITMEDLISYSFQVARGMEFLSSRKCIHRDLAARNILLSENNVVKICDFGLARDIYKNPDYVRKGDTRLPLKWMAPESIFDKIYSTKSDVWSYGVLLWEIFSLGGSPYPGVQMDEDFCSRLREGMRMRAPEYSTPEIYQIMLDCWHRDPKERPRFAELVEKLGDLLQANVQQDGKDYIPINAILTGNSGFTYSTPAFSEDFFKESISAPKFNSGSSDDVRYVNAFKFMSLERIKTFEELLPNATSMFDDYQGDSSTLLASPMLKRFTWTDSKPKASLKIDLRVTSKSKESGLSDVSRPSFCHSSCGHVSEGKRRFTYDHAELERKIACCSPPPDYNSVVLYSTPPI

[9] = target: Vascular endothelial growth factor receptor 2 (Homo sapiens, UniProt P35968); test: Inhibition of human VEGFR2
Vascular endothelial growth factor receptor 2, sequence (P35968 whole entry): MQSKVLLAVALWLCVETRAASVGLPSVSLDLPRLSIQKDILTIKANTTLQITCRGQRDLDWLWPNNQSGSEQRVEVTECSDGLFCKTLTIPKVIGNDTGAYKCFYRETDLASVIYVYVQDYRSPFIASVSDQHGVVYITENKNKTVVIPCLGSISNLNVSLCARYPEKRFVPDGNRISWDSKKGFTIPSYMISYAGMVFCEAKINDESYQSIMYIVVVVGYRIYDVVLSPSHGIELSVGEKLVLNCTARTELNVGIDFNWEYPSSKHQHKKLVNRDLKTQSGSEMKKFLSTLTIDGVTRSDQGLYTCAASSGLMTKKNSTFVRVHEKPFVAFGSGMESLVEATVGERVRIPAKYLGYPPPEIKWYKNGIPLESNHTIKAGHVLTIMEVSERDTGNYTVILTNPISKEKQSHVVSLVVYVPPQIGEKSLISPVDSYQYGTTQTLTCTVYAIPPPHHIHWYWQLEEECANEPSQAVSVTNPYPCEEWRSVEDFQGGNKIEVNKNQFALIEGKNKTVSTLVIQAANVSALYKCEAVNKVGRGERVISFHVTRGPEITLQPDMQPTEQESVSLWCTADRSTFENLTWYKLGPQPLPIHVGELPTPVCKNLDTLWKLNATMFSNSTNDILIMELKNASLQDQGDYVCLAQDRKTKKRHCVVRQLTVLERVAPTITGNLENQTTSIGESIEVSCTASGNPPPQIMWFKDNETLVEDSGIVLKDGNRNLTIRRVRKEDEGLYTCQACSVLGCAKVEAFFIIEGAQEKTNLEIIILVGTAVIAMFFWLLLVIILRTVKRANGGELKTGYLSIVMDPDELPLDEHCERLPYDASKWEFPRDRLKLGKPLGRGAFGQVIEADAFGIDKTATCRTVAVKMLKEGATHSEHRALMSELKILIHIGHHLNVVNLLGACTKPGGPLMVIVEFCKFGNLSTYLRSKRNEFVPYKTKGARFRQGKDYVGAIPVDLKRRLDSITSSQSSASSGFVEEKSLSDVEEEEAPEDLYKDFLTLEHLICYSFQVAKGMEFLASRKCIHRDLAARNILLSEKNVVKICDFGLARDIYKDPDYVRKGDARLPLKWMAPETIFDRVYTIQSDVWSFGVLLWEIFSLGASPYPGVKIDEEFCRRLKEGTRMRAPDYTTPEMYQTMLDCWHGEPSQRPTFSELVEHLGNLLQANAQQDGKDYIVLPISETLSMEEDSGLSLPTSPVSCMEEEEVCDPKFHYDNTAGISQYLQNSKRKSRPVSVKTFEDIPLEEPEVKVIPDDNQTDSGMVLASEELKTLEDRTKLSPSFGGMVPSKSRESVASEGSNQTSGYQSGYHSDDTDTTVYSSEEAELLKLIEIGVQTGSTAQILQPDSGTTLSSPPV

[10] = target: Vascular endothelial growth factor receptor 3 (Homo sapiens, UniProt P35916); test: Inhibition of human VEGFR3
Vascular endothelial growth factor receptor 3, sequence (P35916 whole entry): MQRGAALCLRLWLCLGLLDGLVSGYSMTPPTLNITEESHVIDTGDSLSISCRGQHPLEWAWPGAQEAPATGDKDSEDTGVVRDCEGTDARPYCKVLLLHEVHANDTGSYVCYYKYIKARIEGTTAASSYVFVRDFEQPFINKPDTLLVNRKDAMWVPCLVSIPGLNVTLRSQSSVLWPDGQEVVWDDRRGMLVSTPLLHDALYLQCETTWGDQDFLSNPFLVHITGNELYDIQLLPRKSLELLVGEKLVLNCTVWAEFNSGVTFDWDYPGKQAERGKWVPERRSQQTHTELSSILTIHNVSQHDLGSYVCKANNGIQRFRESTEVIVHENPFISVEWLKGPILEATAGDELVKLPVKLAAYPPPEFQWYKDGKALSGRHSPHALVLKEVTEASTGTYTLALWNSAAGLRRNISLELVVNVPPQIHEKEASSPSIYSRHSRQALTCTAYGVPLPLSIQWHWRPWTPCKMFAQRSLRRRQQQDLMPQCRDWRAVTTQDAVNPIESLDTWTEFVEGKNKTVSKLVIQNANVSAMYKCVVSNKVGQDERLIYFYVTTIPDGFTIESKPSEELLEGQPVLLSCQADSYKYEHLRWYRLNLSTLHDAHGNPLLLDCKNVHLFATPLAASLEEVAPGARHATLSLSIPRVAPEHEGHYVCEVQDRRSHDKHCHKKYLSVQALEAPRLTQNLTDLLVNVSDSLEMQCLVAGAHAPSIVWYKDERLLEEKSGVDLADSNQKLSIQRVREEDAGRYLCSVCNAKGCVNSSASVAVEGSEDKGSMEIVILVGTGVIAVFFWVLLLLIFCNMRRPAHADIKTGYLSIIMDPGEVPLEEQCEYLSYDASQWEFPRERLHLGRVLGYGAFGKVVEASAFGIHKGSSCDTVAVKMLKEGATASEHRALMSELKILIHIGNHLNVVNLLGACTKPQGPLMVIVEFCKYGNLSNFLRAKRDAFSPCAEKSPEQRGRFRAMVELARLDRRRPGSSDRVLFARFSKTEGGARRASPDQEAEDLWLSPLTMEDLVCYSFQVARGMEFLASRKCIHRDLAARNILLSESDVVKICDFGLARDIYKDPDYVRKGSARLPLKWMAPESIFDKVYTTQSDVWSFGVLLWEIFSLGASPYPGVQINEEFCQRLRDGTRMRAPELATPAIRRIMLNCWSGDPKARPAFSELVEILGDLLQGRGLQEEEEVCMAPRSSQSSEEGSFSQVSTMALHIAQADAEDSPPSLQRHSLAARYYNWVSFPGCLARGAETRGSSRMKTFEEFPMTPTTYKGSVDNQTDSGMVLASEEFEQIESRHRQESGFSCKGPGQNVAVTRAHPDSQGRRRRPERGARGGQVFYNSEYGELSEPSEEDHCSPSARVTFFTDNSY

Hepatitis C virus [11] = test: Antiviral activity against HCV subgenomic 1a replicon upto 32 uM; assay type: functional, organism-based; settings: Hepacivirus hominis; subtype 1a
[12] = Drug level in Swiss SPF (CD1) mouse plasma at 20 mg/kg, po after 0.5 hrs; assay type: ADME, organism-based; set-up: dose 20 mg/kg, route oral
[13] = Drug level in Swiss SPF (CD1) mouse heart at 20 mg/kg, po after 0.5 hrs; assay type: ADME, organism-based; set-up: dose 20 mg/kg, route oral; settings: read-out: Drug uptake
[14] = Drug level in Swiss SPF (CD1) mouse liver at 20 mg/kg, po after 0.5 hrs; assay type: ADME, organism-based; set-up: dose 20 mg/kg, route oral; settings: read-out: Drug uptake
[15] = Drug level in Swiss SPF (CD1) mouse plasma at 20 mg/kg, po after 1 hr; assay type: ADME, organism-based; set-up: dose 20 mg/kg, route oral
[16] = Drug level in Swiss SPF (CD1) mouse heart at 20 mg/kg, po after 1 hr; assay type: ADME, organism-based; set-up: dose 20 mg/kg, route oral; settings: read-out: Drug uptake
[17] = Drug level in Swiss SPF (CD1) mouse liver at 20 mg/kg, po after 1 hr; assay type: ADME, organism-based; set-up: dose 20 mg/kg, route oral; settings: read-out: Drug uptake
[18] = Drug level in Swiss SPF (CD1) mouse plasma at 20 mg/kg, po after 2 hrs; assay type: ADME, organism-based; set-up: dose 20 mg/kg, route oral
[19] = Drug level in Swiss SPF (CD1) mouse heart at 20 mg/kg, po after 2 hrs; assay type: ADME, organism-based; set-up: dose 20 mg/kg, route oral; settings: read-out: Drug uptake
[20] = Drug level in Swiss SPF (CD1) mouse plasma at 20 mg/kg, po after 4 hrs; assay type: ADME, organism-based; set-up: dose 20 mg/kg, route oral
[21] = Drug level in Swiss SPF (CD1) mouse liver at 20 mg/kg, po after 2 hrs; assay type: ADME, organism-based; set-up: dose 20 mg/kg, route oral; settings: read-out: Drug uptake
[22] = Drug level in Swiss SPF (CD1) mouse heart at 20 mg/kg, po after 4 hrs; assay type: ADME, organism-based; set-up: dose 20 mg/kg, route oral; settings: read-out: Drug uptake
[23] = Drug level in Swiss SPF (CD1) mouse liver at 20 mg/kg, po after 4 hrs; assay type: ADME, organism-based; set-up: dose 20 mg/kg, route oral; settings: read-out: Drug uptake
[24] = Drug level in Swiss SPF (CD1) mouse plasma at 20 mg/kg, po after 8 hrs; assay type: ADME, organism-based; set-up: dose 20 mg/kg, route oral
[25] = Drug level in Swiss SPF (CD1) mouse heart at 20 mg/kg, po after 8 hrs; assay type: ADME, organism-based; set-up: dose 20 mg/kg, route oral; settings: read-out: Drug uptake
[26] = Drug level in Swiss SPF (CD1) mouse liver at 20 mg/kg, po after 8 hrs; assay type: ADME, organism-based; set-up: dose 20 mg/kg, route oral; settings: read-out: Drug uptake
[27] = Drug level in Swiss SPF (CD1) mouse plasma at 20 mg/kg, po after 24 hrs; assay type: ADME, organism-based; set-up: dose 20 mg/kg, route oral
[28] = Drug level in Swiss SPF (CD1) mouse heart at 20 mg/kg, po after 24 hrs; assay type: ADME, organism-based; set-up: dose 20 mg/kg, route oral; settings: read-out: Drug uptake
[29] = Cmax in Swiss SPF (CD1) mouse plasma at 20 mg/kg, po; assay type: ADME, organism-based; set-up: dose 20 mg/kg, route oral
[30] = Cmax in Swiss SPF (CD1) mouse heart at 20 mg/kg, po; assay type: ADME, organism-based; set-up: dose 20 mg/kg, route oral
[31] = Cmax in Swiss SPF (CD1) mouse liver at 20 mg/kg, po; assay type: ADME, organism-based; set-up: dose 20 mg/kg, route oral
[32] = Tmax in Swiss SPF (CD1) mouse plasma at 20 mg/kg, po; assay type: ADME, organism-based; set-up: dose 20 mg/kg, route oral
[33] = Tmax in Swiss SPF (CD1) mouse heart at 20 mg/kg, po; assay type: ADME, organism-based; set-up: dose 20 mg/kg, route oral
[34] = Tmax in Swiss SPF (CD1) mouse liver at 20 mg/kg, po; assay type: ADME, organism-based; set-up: dose 20 mg/kg, route oral
[35] = Half life in Swiss SPF (CD1) mouse plasma at 20 mg/kg, po after 2 to 8 hrs; assay type: ADME, organism-based; set-up: dose 20 mg/kg, route oral
[36] = Half life in Swiss SPF (CD1) mouse heart at 20 mg/kg, po after 2 to 8 hrs; assay type: ADME, organism-based; set-up: dose 20 mg/kg, route oral
[37] = Half life in Swiss SPF (CD1) mouse liver at 20 mg/kg, po after 2 to 8 hrs; assay type: ADME, organism-based; set-up: dose 20 mg/kg, route oral
[38] = AUC (0 to 8 hrs) in Swiss SPF (CD1) mouse plasma at 20 mg/kg, po; assay type: ADME, organism-based; set-up: time < 8 hr, dose 20 mg/kg, route oral
[39] = AUC (0 to 8 hrs) in Swiss SPF (CD1) mouse heart at 20 mg/kg, po; assay type: ADME, organism-based; set-up: time < 8 hr, dose 20 mg/kg, route oral
[40] = AUC (0 to 8 hrs) in Swiss SPF (CD1) mouse liver at 20 mg/kg, po; assay type: ADME, organism-based; set-up: time < 8 hr, dose 20 mg/kg, route oral
[41] = AUC (0 to infinity) in Swiss SPF (CD1) mouse plasma at 20 mg/kg, po; assay type: ADME, organism-based; set-up: time infinity, dose 20 mg/kg, route oral
[42] = AUC (0 to infinity) in Swiss SPF (CD1) mouse heart at 20 mg/kg, po; assay type: ADME, organism-based; set-up: time infinity, dose 20 mg/kg, route oral
[43] = AUC (0 to infinity) in Swiss SPF (CD1) mouse liver at 20 mg/kg, po; assay type: ADME, organism-based; set-up: time infinity, dose 20 mg/kg, route oral
Hepatitis C virus [44] = test: Antiviral activity against HCV subgenomic 1b replicon upto 32 uM; assay type: functional, organism-based; settings: Hepacivirus hominis; genotype 1b
[45] = Inhibition of HCV NS5B polymerase; set-up: species or system Hepacivirus hominis
[46] = Inhibition of HCV NS3/4A protease; set-up: species or system Hepacivirus hominis
[47] = target: Mitogen-activated protein kinase 8 (Homo sapiens, UniProt P45983); test: Inhibition of JNK1
Mitogen-activated protein kinase 8, sequence (P45983 whole entry): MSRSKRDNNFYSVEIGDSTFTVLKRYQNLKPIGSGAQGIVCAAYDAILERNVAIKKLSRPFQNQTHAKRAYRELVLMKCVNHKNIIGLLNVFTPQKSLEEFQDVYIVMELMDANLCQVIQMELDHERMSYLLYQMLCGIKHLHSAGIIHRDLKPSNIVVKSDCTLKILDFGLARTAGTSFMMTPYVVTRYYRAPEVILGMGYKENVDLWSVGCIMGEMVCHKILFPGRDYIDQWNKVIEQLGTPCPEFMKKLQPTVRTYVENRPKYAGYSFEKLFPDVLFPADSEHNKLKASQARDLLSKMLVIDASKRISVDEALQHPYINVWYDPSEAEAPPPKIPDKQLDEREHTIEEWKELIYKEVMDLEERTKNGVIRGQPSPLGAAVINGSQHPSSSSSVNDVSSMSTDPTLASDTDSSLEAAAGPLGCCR

TGF-beta receptor type-1 = target: T1, TGF-beta receptor type-1 (Homo sapiens, UniProt P36897)
T1 sequence (P36897 whole entry): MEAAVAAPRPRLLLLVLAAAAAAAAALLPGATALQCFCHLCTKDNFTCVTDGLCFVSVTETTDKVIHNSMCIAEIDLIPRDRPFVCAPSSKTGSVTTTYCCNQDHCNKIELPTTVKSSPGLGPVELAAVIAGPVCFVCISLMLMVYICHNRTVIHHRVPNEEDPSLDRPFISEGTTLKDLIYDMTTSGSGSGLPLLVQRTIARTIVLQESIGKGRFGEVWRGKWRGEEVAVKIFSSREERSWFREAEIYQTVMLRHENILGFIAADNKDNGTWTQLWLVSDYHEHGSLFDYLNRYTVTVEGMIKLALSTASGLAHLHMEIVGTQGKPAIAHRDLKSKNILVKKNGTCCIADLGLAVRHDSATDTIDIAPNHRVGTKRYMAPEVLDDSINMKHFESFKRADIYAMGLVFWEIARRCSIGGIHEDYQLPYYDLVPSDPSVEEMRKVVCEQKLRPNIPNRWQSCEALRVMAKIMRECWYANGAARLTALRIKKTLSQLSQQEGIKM

EC50 (Hepatitis C virus [1]): 4 µM
SMILES: Fc1ccc(Br)cc1-c1nc(Nc2ccccc2)c2nccnc2n1
CC50 [2]: > 32 µM
CC50 [3]: > 32 µM

EC50 (Hepatitis C virus [1]): 0.92 µM
SMILES: COc1cnc(-c2cc(Cl)ccc2F)nc1Nc1ccncc1C(=O)NCCCn1ccnc1
CC50 [2]: 8.1 µM
CC50 [3]: 15.3 µM

EC50 (Hepatitis C virus [1]): 1.91 µM
SMILES: FC(F)(F)c1cccc(-c2nc(Nc3ccncc3)c3nccnc3n2)c1
CC50 [2]: > 25 µM
CC50 [3]: > 25 µM

SMILES: O=C(NCCCN1CCCC1=O)c1cnccc1Nc1nc(-c2cc(Br)ccc2F)nc2nccnc12
Activity (Hepatitis C virus [4]): Active
EC50 (Hepatitis C virus [1]): 0.064 µM
CC50 [2]: > 32 µM
CC50 [3]: > 32 µM
Activity [5]: inactive
IC50 [6]: 0.037 µM
IC50 [7]: 0.059 µM
IC50 [8]: 0.047 µM
IC50 [9]: 0.14 µM
IC50 [10]: 0.123 µM
Activity (Hepatitis C virus [11]): inactive
concentration at 0.5 h [12]: 220 ng/mL
concentration at 0.5 h [13]: 678 ng/mL
concentration at 0.5 h [14]: 4060 ng/mL
concentration at 1 h [15]: 166 ng/mL
concentration at 1 h [16]: 557 ng/mL
concentration at 1 h [17]: 2940 ng/mL
concentration at 2 h [18]: 21.7 ng/mL
concentration at 2 h [19]: 92.9 ng/mL
concentration at 4 h [20]: 20.3 ng/mL
concentration at 2 h [21]: 611 ng/mL
concentration at 4 h [22]: 83.6 ng/mL
concentration at 4 h [23]: 627 ng/mL
concentration at 8 h [24]: 5.52 ng/mL
concentration at 8 h [25]: 29.1 ng/mL
concentration at 8 h [26]: 201 ng/mL
concentration at 24 h [27]: < 0.5 ng/mL
concentration at 24 h [28]: 5 ng/mL
Cmax [29]: 220 ng/mL
Cmax [30]: 678 ng/mL
Cmax [31]: 4060 ng/mL
Tmax [32]: 0.5 h
Tmax [33]: 0.5 h
Tmax [34]: 0.5 h
half-life [35]: 2.9 h
half-life [36]: 3.4 h
half-life [37]: 3.5 h
AUC(0-t) at 8 h [38]: 309 ng·h/mL
AUC(0-t) at 8 h [39]: 1120 ng·h/mL
AUC(0-t) at 8 h [40]: 6960 ng·h/mL
AUC(0-inf) [41]: 332 ng·h/mL
AUC(0-inf) [42]: 1260 ng·h/mL
AUC(0-inf) [43]: 7970 ng·h/mL
Activity (Hepatitis C virus [44]): inactive
IC50 [45]: > 30 µM
IC50 [46]: > 30 µM
IC50 [47]: 10.5 µM
IC50 (TGF-beta receptor type-1): 0.0032 µM

EC50 (Hepatitis C virus [1]): 0.99 µM
SMILES: Fc1ccc(Br)cc1-c1nc(N(Cc2ccccc2)c2ccncc2)c2nccnc2n1
CC50 [2]: > 32 µM
CC50 [3]: > 32 µM

EC50 (Hepatitis C virus [1]): 3.6 µM
SMILES: COc1cnc(-c2cc(Cl)ccc2F)nc1Nc1ccncc1C(=O)NCCN
CC50 [2]: 4.7 µM
CC50 [3]: 5.5 µM

EC50 (Hepatitis C virus [1]): 0.59 µM
SMILES: COc1cnc(-c2cc(Cl)ccc2F)nc1Nc1ccncc1C(=O)NCCCN(C)C
CC50 [2]: 5 µM
CC50 [3]: 15.8 µM

Reference: ChEMBL document CHEMBL1148862, “Evaluation of the anti-hepatitis C virus effect of novel potent, selective, and orally bioavailable JNK and VEGFR kinase inhibitors” (Bioorg Med Chem Lett, 2007)
